Laboratory results from patent publication US5565566A (Discovery Therapeutics, Inc., priority 1995, dated 1996).
Counter-ions that a name gives are not always drawn.

Target: T1, rat cortical A1 receptors (Rattus norvegicus, UniProt P25099)
T1 construct: rat cortical membranes were the receptor source; from tissue; host or cells: rat cerebral cortex (male Sprague Dawley) membranes
T1 sequence (P25099 1-326): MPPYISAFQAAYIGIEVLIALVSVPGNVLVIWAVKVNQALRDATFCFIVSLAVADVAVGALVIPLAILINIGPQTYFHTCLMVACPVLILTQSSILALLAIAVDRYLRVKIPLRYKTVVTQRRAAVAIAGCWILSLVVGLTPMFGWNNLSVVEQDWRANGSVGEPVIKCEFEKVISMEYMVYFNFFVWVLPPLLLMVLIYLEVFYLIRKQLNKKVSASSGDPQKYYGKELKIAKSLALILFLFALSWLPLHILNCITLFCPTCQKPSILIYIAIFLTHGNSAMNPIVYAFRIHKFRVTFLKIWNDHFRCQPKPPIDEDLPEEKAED
Assay: displacement of [3H]-CHA from rat cortical A1 receptors
Assay type: binding
Settings: [3H]-CHA; rat cortical A1 receptors; read-out: Rat Cortical Binding Constant Ki
Description: Varying concentrations of test compounds were incubated with the appropriate radioligand and membrane source for 1 hr at room temperature.
Assays were terminated by filtration over Whatman GF/B filters that had been pre-soaked with 0.1% polyethyleneimine using a 24 port Brandell cell havester. The filters were washed three times with 3 ml of ice cold buffer and transfered to plastic scintillation vials to which 4 ml of Beckman Ready protein scintillation cocktail was added. The tubes were shaken and counted in a Beckman 3801 scintillation counter that converted cpm to dpm.
Data were analyzed by utilizing the Ligand, commercial computer program (Munson and Rodbard, 1980).
Male Sprague Dawley rats were killed by decapitation and the brains removed. The cerebral cortices were homogenized in 50 mm Tris; 2mm MgCl2 (pH 7.4), and centrifuged at 40,000×g for 10 minutes. […] The homogenate was centrifuged, washed once, resuspended to a protein concentration of 5-10 mg/ml and frozen at -70° C. until use.

| SMILES | Ki |
| --- | --- |
| Cn1c(=O)[nH]c2c(N[C@H]3C[C@H]4CC[C@@H]3C4)ncnc21 (relative stereo) [compound 1001, N^6-(endo-2-norbornyl)-8-oxo-9-MA] | ~10000 nM |
| Cn1c(N)nc2c(N[C@H]3C[C@H]4CC[C@@H]3C4)ncnc21 (relative stereo) [compound 1005, N^6-(endo-2-norbornyl)-8-amino-9-MA] | 870 nM |
| Cn1c(C(=O)O)nc2c(N[C@H]3C[C@H]4CC[C@@H]3C4)ncnc21 (relative stereo) [compound 1006, N^6-(endo-2-norbornyl)-8-carboxy-9-MA Sodium Salt] | > 10000 nM |
| Cn1c(S(=O)(=O)O)nc2c(N[C@H]3C[C@H]4CC[C@@H]3C4)ncnc21 (relative stereo) [compound 1062, N^6-(endo-2-norbornyl)-8-sulfonate-9-MA sodium salt] | > 100000 nM |
| Cn1cnc2c(N[C@H]3C[C@H]4CC[C@@H]3C4)nc(O)nc21 (relative stereo) [compound 1063, N^6-(Endo-2-norbornyl)-2-oxo-9-MA] | 1120 nM |
| Cn1c(NC2CCCC2)nc2c(N[C@H]3C[C@H]4CC[C@@H]3C4)ncnc21 (relative stereo) [compound 1064, N^6-(endo-2-norbornyl)-8-cyclopentylamine-9-MA] | 1900 nM |
| Cn1cnc2c(NCC(c3ccccc3)c3ccccc3)ncnc21 [compound 0966, N^6-2,2-diphenylethyl-9-MA] | > 10000 nM |
| Cn1cnc2c(NCCc3ccccc3Cl)ncnc21 [compound 0967, N^6-2(2-chlorophenylethyl)9-MA] | > 10000 nM |
| Cn1cnc2c(NCCN)ncnc21 [compound 0982, N^6-2-Aminoethyl-9-MA] | > 10000 nM |
| CN(C)CCNc1ncnc2c1ncn2C [compound 0983, N^6-(2,2-N-dimethylethyl)-9-MA] | > 10000 nM |
| C[C@@H](Nc1ncnc2c1ncn2C)c1ccccc1 [compound 0984, N^6 -R-1-phenyl-1-ethyl-9-MA] | > 10000 nM |
| C[C@H](Nc1ncnc2c1ncn2C)c1ccccc1 [compound 0985, N^6 -S-1-phenyl-1-ethyl-9-MA] | > 100000 nM |
| Cn1cnc2c(Nc3cccs3)ncnc21 [compound 0987, N6 2-thienyl-9-MA] | > 100000 nM |
| Cc1cc(Cl)ccc1Nc1ncnc2c1ncn2C [compound 0988, N6(4-chloro-2-methylphenyl)-9-MA] | > 10000 nM |
| Cn1cnc2c(NCCc3c[nH]c4ccccc34)ncnc21 [compound 0989, N^6-2-(3-ethylindole)-9-MA] | > 10000 nM |

Now those with a lower Ki, led by results:

| Ki | SMILES |
| --- | --- |
| 490 nM | OCCOCn1cnc2c(N[C@H]3C[C@H]4CC[C@@H]3C4)ncnc21 (relative stereo) [compound 1059, N^6-(endo-2-norbornyl)-9-[(2-hydroxyethoxy)methyl]adenine] |
| 430 nM | Cn1cnc2c(N[C@@H]3C[C@H]4CC[C@@H]3C4)ncnc21 (relative stereo) [compound 0978, N^6-(exo-2-norbornyl)-9-MA] |
| 370 nM | Cn1c(S)nc2c(N[C@H]3C[C@H]4CC[C@@H]3C4)ncnc21 (relative stereo) [compound 1060, N^6-(endo-2-norbornyl)-8-thio-9-MA] |
| 240 nM | Cn1c(C2CCCC2)nc2c(N[C@H]3C[C@H]4CC[C@@H]3C4)ncnc21 (relative stereo) [compound 0964, N^6-(endo-2-norbornyl)-8-cyclopentyl-9-MA] |
| 141 nM | Cn1c(C2CCCC2)nc2c(NC3CCCC3)ncnc21 [compound 0965, N^6-cyclopentyl-8-cyclopentyl-9-MA] |
| 105 nM | Cn1cnc2c(N[C@H]3C[C@H]4CC[C@@H]3C4)nc(Cl)nc21 (relative stereo) [compound 0913, N^6-(endo-2-norbornyl)-2-chloro-9-MA] |
| 15 nM | Cn1c(Cl)nc2c(N[C@H]3C[C@H]4CC[C@@H]3C4)ncnc21 (relative stereo) [compound 1061, N^6-(endo-2-norbornyl)-8-chloro-9-MA] |
| 13 nM | Cn1c(Br)nc2c(N[C@H]3C[C@H]4CC[C@@H]3C4)ncnc21 (relative stereo) [compound 1003, N^6-(endo-2-norbornyl)-8-bromo-9-MA] |
